In PubChem BioAssay AID1996:
Converted amounts (≈) assume the structure as drawn.

Settings: buffer; pH 7.4; 200.0 µM

Row | SMILES | solubility kinetic
1 | O=C(COC(=O)/C=C/c1ccc(OC(F)F)cc1)NC1CCCCCC1 | 4.6 µg/mL (≈ 12.5 µM)
2 | CCNC(=O)c1ccccc1NC(=O)C1CC(=O)N(C(C)C)C1 (stereo unspecified) | > 47.6 µg/mL
3 | CSc1ncc(Cl)c(C(=O)Nc2cc(C)ccc2C)n1 | < 0.2 µg/mL
4 | CN(Cc1nc(Cc2cccc(F)c2)no1)CC1CCOCC1 | 41.1 µg/mL (≈ 129 µM)
5 | Cc1ccc2cc3c(nc2c1)OCC3 | > 27.8 µg/mL
6 | CC1(C)CC(=O)c2sc(NC(=O)c3ccccc3)nc2C1 | 22.6 µg/mL (≈ 75.2 µM)
7 | CCCCn1c(C)c(C(=O)OCC)c2c(CN3CCCC3)c(O)ccc21 | 53.1 µg/mL (≈ 148 µM)
8 | Cc1oc(-c2ccoc2)nc1CN(CC1CCC(=O)N1)C(C)C (stereo unspecified) | 38.8 µg/mL (≈ 122 µM)
9 | COc1ccc(CN2CCCCCC2)cc1Br | 43.3 µg/mL (≈ 145 µM)
10 | O=C(NCC(c1ccco1)N1CCOCC1)C1CCCCC1 (stereo unspecified) | > 46 µg/mL
11 | O=C1c2ccccc2CN1C(CO)Cc1ccccc1 (stereo unspecified) | > 40.1 µg/mL
12 | O=S(=O)(NC1CCSc2ccccc21)c1ccccc1 (stereo unspecified) | 15.6 µg/mL (≈ 51.1 µM)
13 | CN(C)S(=O)(=O)N1CCN(C(=O)c2ccc3c(c2)OCO3)CC1 | > 51.2 µg/mL
14 | Cc1nn(-c2ccccn2)c(N)c1N=O | > 30.5 µg/mL
15 | OC1CCN(CC(O)C(F)(F)F)CC1 (stereo unspecified) | > 32 µg/mL
16 | CC1CCN(Cc2cc(=O)oc3cc4c(cc23)CCCC4)CC1 | < 0.7 µg/mL
17 | COc1cc(/C=C/C(=O)OCC(=O)NC2CC2)cc(OC)c1OC | > 50.3 µg/mL

Row | SMILES | solubility kinetic
18 | O=C(CCN1C(=O)C2C3C=CC(C3)C2C1=O)N1CCCCC1 (stereo unspecified) | > 45.4 µg/mL
19 | O=C(COC(=O)COc1ccccc1[N+](=O)[O-])Nc1ccc2c(c1)OCO2 | 51.5 µg/mL (≈ 138 µM)
20 | Cn1cccc1C(=O)NCC(c1ccc(F)cc1)N1CCOCC1 (stereo unspecified) | 47.3 µg/mL (≈ 143 µM)
21 | c1ccc(Oc2cccc3cccnc23)nc1 | 32.5 µg/mL (≈ 146 µM)
22 | Cc1ccc(S(=O)(=O)N2CC[C@@H]2C(=O)O)cc1 | > 38.3 µg/mL
23 | COC(=O)c1ccccc1NC(=S)N(C)C | 34.2 µg/mL (≈ 144 µM)
24 | O=C1NCC(O)=C1C=Nc1ccccc1O | > 32.7 µg/mL
25 | CCC1CCCCN1C(=O)CNCC1CCCO1.Cl (stereo unspecified) | 27.4 µg/mL
26 | O=C(/C=C/c1ccccc1)NCCc1c[nH]c2ccccc12 | 19.7 µg/mL (≈ 67.8 µM)
27 | CCCCNC(=O)O/N=C(\N)CS(=O)(=O)C(C)(C)C | 36.5 µg/mL (≈ 124 µM)
28 | O=C(NCC1CCCO1)c1cc2cc(Cl)ccc2[nH]1 (stereo unspecified) | 17 µg/mL (≈ 61 µM)
29 | CC1CN(Cc2cc(=O)oc3cc(O)ccc23)CC(C)O1 (stereo unspecified) | > 43.4 µg/mL
30 | COc1cc(/C=C2/C(=O)ON=C2C)cc(Cl)c1O | > 40.2 µg/mL
31 | CC1CCC(NC(=O)c2ccc3c(c2)OCO3)CC1 (stereo unspecified) | 10.4 µg/mL (≈ 39.8 µM)
32 | CC1CC1C(=O)Nc1nc2ccc(S(C)(=O)=O)cc2s1 (stereo unspecified) | > 46.6 µg/mL
33 | COc1cc(OC)nc(Oc2cccc(C(F)(F)F)c2)n1 | < 0.3 µg/mL
34 | COc1ccccc1-c1nnc(SCC(=O)N2CCCC2)o1 | > 47.9 µg/mL

Now from value to compound:

Row | solubility kinetic | SMILES
35 | 12.8 µg/mL (≈ 44.6 µM) | Cc1ccc(C(=O)OCC(=O)NCc2ccco2)cc1C
36 | 4.6 µg/mL (≈ 13.1 µM) | NS(=O)(=O)c1cc(C(=O)Nc2ccc3c(c2)CCC3)ccc1Cl
37 | 3.2 µg/mL (≈ 10.3 µM) | COc1ccc(C(=O)/C=C/c2ccc(N(C)C)cc2)c(OC)c1
38 | > 54.8 µg/mL | COc1ccc(-c2nsc(SCC(=O)NCC3CCCO3)n2)cc1 (stereo unspecified)
39 | 23.1 µg/mL (≈ 82.1 µM) | COc1cccc(/C=N/c2nc3ccccc3n2C)c1O
40 | 6.9 µg/mL (≈ 22.2 µM) | Cc1[nH]c2ccccc2c1C(=O)COC(=O)c1nccnc1N
41 | 42.3 µg/mL (≈ 141 µM) | COc1ccc2nc(C)cc(N3CCC(C(N)=O)CC3)c2c1
42 | 23.7 µg/mL (≈ 81.6 µM) | COc1ccc(C(=O)CSc2cc(C)[nH]c(=O)n2)cc1
43 | 43.4 µg/mL (≈ 128 µM) | Cc1ccccc1N1CC(C(=O)Nc2ccc3c(c2)OCO3)CC1=O (stereo unspecified)
44 | > 31.1 µg/mL | CC(=O)OCC(=O)Nc1ccccc1C
45 | > 47.3 µg/mL | COc1ccccc1CNC(=O)Cc1ccc(OC)c(OC)c1
46 | 0.7 µg/mL (≈ 2.16 µM) | CC(=O)OCc1c(-c2ccccc2)c2cc([N+](=O)[O-])ccc2n1C
47 | > 58.3 µg/mL | Cc1ccc(C)c(S(=O)(=O)NCc2ccc(C(=O)N3CCOCC3)cc2)c1
48 | 3.4 µg/mL (≈ 12.1 µM) | Cc1cccc2c1N(CCOc1ccccc1)C(=O)C2=O
49 | > 45.3 µg/mL | Cn1c(=O)c2c(nc(Oc3cccc(O)c3)n2C)n(C)c1=O
50 | 42.7 µg/mL (≈ 149 µM) | CC(=O)Nc1c(-c2ccccc2)nc2ccc(Cl)cn12
51 | > 41.1 µg/mL | COc1ccccc1NC(=O)Nc1c(C)nn(C)c1C
52 | 0.6 µg/mL (≈ 1.86 µM) | CCOc1ccc(NC(=O)c2cc(OC)nc3ccccc23)cc1
53 | < 0.7 µg/mL | COc1ccc2c(c1)c(C(C)=O)c(C)n2-c1ccc(C(C)=O)cc1
54 | > 55.7 µg/mL | O=C(N/C(=C/c1ccco1)C(=O)N1CCOCC1)c1ccc([N+](=O)[O-])cc1
55 | 45.5 µg/mL (≈ 132 µM) | COc1cc(OC)cc(C(=O)NCCc2ccc(OC)c(OC)c2)c1
56 | < 0.4 µg/mL | Cc1ccc(C(=O)Nc2cccc3cccnc23)cc1Br
57 | 0.3 µg/mL (≈ 0.945 µM) | O=C(Nc1ccccc1)c1cccc(C(=O)Nc2ccccc2)n1
58 | 51.5 µg/mL (≈ 139 µM) | COc1ccc(CC(=O)N2CCN(c3ccccc3OC)CC2)cc1OC
59 | < 0.4 µg/mL | O=C(Nc1ccc2oc(-c3ccccc3F)nc2c1)c1ccccc1F
60 | < 0.4 µg/mL | Cc1ccc(NC(=O)c2ccccc2NC(=O)c2cccs2)cc1
61 | > 38 µg/mL | O=C(O)Cn1c(-c2ccccn2)nc2ccccc21
